Measured values: patent US20220257698A1, “ANGIOTENSIN TYPE 2 (AT2) RECEPTOR AGONISTS FOR USE IN THE TREATMENT OF CANCER” (LANTHIOPEP B.V., priority 2019, published 2022)

What was measured:
Assay type in all cases: in vivo, cd1 nu/nu mice (human GBM cell line)
U87MG glioblastoma CDX [1] = assay: Subcutaneous U87MG glioblastoma CDX: tumor weight and time of tumor progression; details: for tumor weight [%]: relative to vehicle = 100
Experimental: Effects of KcAng(1-7) were evaluated in vivo in a subcutaneous GBM xenograft model in nude mice. Insurgence of neurologic phenomena and differences in the survival rates were evaluated. Human GBM cell lines U87MG and U251MG were used. Cell lines were grown in DMEM nutrient mixture supplemented with 10% fetal bovine serum, 1% penicillin/streptomycin, and 25 mM HEPES buffer. All cell lines were cultured at 37° C. in a humidified atmosphere consisting of 5% CO2 and 95% air. Medium was changed every 2 days and the cell morphology was evaluated under microscope daily.
Six-week-old male athymic nude mice (age 5-7 weeks) were housed with free access to food and water in a temperature-controlled room. Each group is represented by 10 xenograft cd1 nu/nu mice. The mice were injected s.c. in the right distal hind limb with one million of cultured human tumor cell lines suspended in 0.15 mL of 2:1 solution of PBS/Matrigel (Matrigel BD Biosciences). Xenografts were measured every four days with a digital caliper in two perpendicular dimensions. Tumor volume was calculated according to the following formula:
Tumor volume=(tumor width)×(tumor width)×(tumor length)÷2
At the end of experiments, mice were euthanized and tumors removed. Weight loss or other signs of distress such as hunched posture were checked during and after treatments.
Efficacy of treatment was evaluated by: (1) the size of tumors (vehicle control and treated), (2) the relative weight at the end of experiment, and (3) the indirect evaluation of angiogenesis by determining hemoglobin levels.
In vivo tumor response to treatment was evaluated using the following parameters: (i) Complete response (CR): defined as the disappearance of a measurable lesion, (ii) Partial response (PR): defined as a reduction of greater than 50% of the sum of the products of the cross-sectional diameters of the measurable lesion, (iii) Stable disease (SD): defined as a reduction of less than 50% or an increase of less than 25% in the sum of the products of the cross-sectional diameters of the measurable lesions, (iv) Tumor progression (TP): defined as an increase of greater than […] in the sum of the products of the cross-sectional diameters of the measured lesion, (v) Time to progression (TTP) defining the tumor growth delay. Tumor progression was calculated through the analysis of bioluminescence imaging (BLI) photon counts and when possible through the analyses of tumor volumes calculated by magnetic resonance imaging (MRI), (vi) Disease free survival (DFS) is the time elapsed between the time point at which no luciferase activity is detectable anymore and the death of the animal, (vii) Overall survival (OS) is the time elapsed between tumor inoculation and death of the animal. […] Luciferase transfected cells were used for bioluminescence evaluations.
Data are presented as mean and standard error of the mean (SEM) or standard deviation (SD). Statistical comparisons between control and treated groups were established by carrying out the Kruskal-Wallis test (a nonparametric one-way analysis of variance) or the Mann-Whitney test (in the case of two groups). The level of significance was corrected by multiplying the P value by the number of comparisons performed (n) according to […] correction. TP, TTP and DFS were analyzed by Kaplan-Meier curves and Gehan's generalized Wilcoxon test. All statistical analyses were undertaken using SPSS 10.0.
Mice with U87MG cell CDX were randomized at day 0. KcAng(1-7) was injected daily subcutaneously (0.2 μg/kg) starting at day 0 until the (ethical) endpoint maximally at day 42. TMZ was administered at 16 mg/kg during 5 consecutive days, that is from […]. Volumetric evaluation of the tumor was performed every 4 days and tumor weight was measured at the end of the experiment.
Synergism was determined using the methods described in Clarke et al. Breast Cancer Research and Treatment 46:255-278 (1997).
Mice with U87MG cell CDX were randomized at day 0. […]

U87MG glioblastoma CDX [2] = assay: Tumor hemoglobin level (indirect angiogenesis) in U87MG CDX; details: KcAng(1-7) 1 μg/kg/d, Losartan 20 mg/kg/d, or both
Experimental: Efficacy of treatment was evaluated by: […] Mice with U87MG cell CDX were randomized at day 0. KcAng(1-7) was injected subcutaneously (1 μg/kg) on a daily basis. Losartan was administered intraperitoneal at 20 mg/kg/day. […] In brief, tumors were homogenized in double-distilled water. Eighty microliters of homogenates were mixed with 1 mL of Drabkin's solution and incubated for 15 min at room temperature. After centrifugation at 400×g for 5 min, the supernatants were subjected to absorbance measurement at 540 nm. The absorption, which is proportional to hemoglobin concentration, was divided by tumor weight.

U251MG glioblastoma CDX [3] = assay: Subcutaneous U251MG glioblastoma CDX: time of tumor progression; details: KcAng(1-7) 1 μg/kg/d, Losartan 20 mg/kg/d, or both
Experimental: Effects of KcAng(1-7) were evaluated in vivo in a subcutaneous GBM xenograft model in nude mice. Insurgence of neurologic phenomena and differences in the survival rates were evaluated. Human GBM cell lines U87MG and U251MG were used. Cell lines were grown in DMEM nutrient mixture supplemented with 10% fetal bovine serum, 1% penicillin/streptomycin, and 25 mM HEPES buffer. All cell lines were cultured at 37° C. in a humidified atmosphere consisting of 5% CO2 and 95% air. Medium was changed every 2 days and the cell morphology was evaluated under microscope daily. Six-week-old male athymic nude mice (age 5-7 weeks) were housed with free access to food and water in a temperature-controlled room. Each group is represented by 10 xenograft cd1 nu/nu mice. […] Xenografts were measured every four days with a digital caliper in two perpendicular dimensions. Tumor volume was calculated according to the following formula: In vivo tumor response to treatment was evaluated using the following parameters: […] […] TP, TTP and DFS were analyzed by Kaplan-Meier curves and Gehan's generalized Wilcoxon test. […]

U251MG glioblastoma CDX [4] = assay: Tumor hemoglobin level (indirect angiogenesis) in U251MG CDX; details: KcAng(1-7) 1 μg/kg/d, Losartan 20 mg/kg/d, or both
Experimental: Efficacy of treatment was evaluated by: […] In brief, tumors were homogenized in double-distilled water. Eighty microliters of homogenates were mixed with 1 mL of Drabkin's solution and incubated for 15 min at room temperature. After centrifugation at 400×g for 5 min, the supernatants were subjected to absorbance measurement at 540 nm. The absorption, which is proportional to hemoglobin concentration, was divided by tumor weight. Effect of KcAng(1-7) and Losartan against heterotopic U251MG cell culture-based xenografts (CDX) in mice. Animals were treated either with vehicle, treated with 20 mg/kg/d Losartan, treated with 1 μ[…](1-7) or treated with a combination of KcAng(1-7) and with Losartan.

| Compound | Time of tumor progression - TTP, mean (days ± SEM) (U87MG glioblastoma CDX [1]; KcAng(1-7) 1 μg/kg/d s.c., Losartan 20 mg/kg/d i.p., or both) | Tumor weight, mean (mg ± SEM) (U87MG glioblastoma CDX [1]; KcAng(1-7) 1 μg/kg/d s.c., Losartan 20 mg/kg/day i.p., or both) | tumor weight [%] (U87MG glioblastoma CDX [1]; KcAng(1-7) 1 μg/kg/d, Losartan 20 mg/kg/d, or both) | Tumor hemoglobin level, mean (± SEM) (U87MG glioblastoma CDX [2]) | Time of tumor progression - TTP, mean (days ± SEM) (U251MG glioblastoma CDX [3]) | Tumor hemoglobin level, mean (± SEM) (U251MG glioblastoma CDX [4]) | Time of tumor progression - TTP, mean (days ± SD) (U87MG glioblastoma CDX [1]; KcAng(1-7) 0.2 μg/kg/d s.c., TMZ 16 mg/kg for 5 days, or both) | Tumor weight, mean (mg ± SD) (U87MG glioblastoma CDX [1]; end of experiment, KcAng(1-7) 0.2 μg/kg/d s.c., TMZ 16 mg/kg for 5 days, or both) | tumor weight [%] (U87MG glioblastoma CDX [1]; KcAng(1-7) 0.2 μg/kg/d, TMZ 16 mg/kg, or both) |
| --- | --- | --- | --- | --- | --- | --- | --- | --- | --- |
| CCCCc1nc(Cl)c(CO)n1Cc1ccc(-c2ccccc2-c2nn[nH]n2)cc1 [Losartan, reference compound] | 13.0 ± 0.6 days | 830 ± 57 mg | 79.8% | 15.2 ± 1.0 mg hemoglobin/g of tissue | 10.6 ± 0.6 days | 32.1 ± 3.1 mg Hb/g of tissue | – | – | – |
| Cn1nnc2c(C(N)=O)ncn2c1=O [Temozolomide, temozolomide, reference compound] | – | – | – | – | – | – | 17.00 ± 0.54 days | 445 ± 28 mg | 42.8% |
